Measured values from patent US20100311767A1 (priority 2007, published 2010).

Tested on: cultured hippocampal neurons

| Molecule | frequency of spontaneous IPSCs [%] | amplitude of miniature PSCs [%] | frequency of miniature PSCs [%] |
| --- | --- | --- | --- |
| CC(C)NCC(O)c1ccc(O)c(O)c1 (stereo not drawn) [isoproterenol, 4-[1-hydroxy-2-(1-methylethylamino)ethyl]benzene-1,2-diol] | 122±58 |  |  |
| ω-agatoxin IVA |  | 90±7 | 27±7 |
